Experimental data as given in paper PMC4226810 (Journal of pharmacokinetics and pharmacodynamics, 2014).
Read-outs that look alike come from different tables or passages of the source.

Experiments:
[1] = Fraction unbound by modified ultra-filtration method; assay type: in vitro ADME; conditions: plasma
[2] = Plasma pharmacokinetics after oral administration in MOLM13 xenograft mice; assay type: in vivo, mouse; conditions: for V / Vmax: one compartment model; for Km: CrTac:NCR-Foxn1nu nude; for Vmax: Michaelis-Menten elimination
[3] = test system: Rb^S780 phosphorylation (biomarker of CDK4/6 activity); test: Subcutaneous MOLM13 tumor cellular signaling: pRb; conditions: 50 mg/Kg QD multiple-day dosing, at 240 hr; baseline pRb(0) 82,600
MOLM13-Luc tumors = test: Orthotopic tumor burden; assay type: in vivo, mouse; conditions: population mean
[4] = test system: STAT5^Y694 phosphorylation; test: Orthotopic MOLM13-Luc tumor cellular signaling: pSTAT5; assay type: in vivo, mouse; conditions: model estimate (%RSE)
[5] = test system: STAT5^Y694 phosphorylation (biomarker of FLT3^ITD activity); test: Subcutaneous MOLM13 tumor cellular signaling: pSTAT5; assay type: in vivo, mouse; conditions: for inhibition of phosphorylation of STAT5 at the time of maximum effect: subcutaneous tumor
[6] = absorption rate constant fixed based on previous studies ref 21, cited from earlier work

fraction unbound [1]	k el ([2]; CrTac:NCR-Foxn1^nu nude, mouse, plasma, oral)	V ([2]; estimate (%RSE))	Km ([2]; mouse, plasma, oral)	Vmax ([2]; estimate (%RSE))	ka ([2]; absorption rate constant, estimate (%RSE))	ratio of IC50 on pSTAT5, subcutaneous xenograft over orthotopic xenograft ([5]; 27.7 nM vs 6.08 nM)	ratio of IC50 for pSTAT5 inhibition to IC50 for pRb inhibition ([5]; subcutaneous tumor signaling model)	SMILES	measured value of pRb (mean+/−sd) [3]	HR Hill coefficient (MOLM13-Luc tumors; pRb term of orthotopic tumor burden model)	HS Hill coefficient (MOLM13-Luc tumors; pSTAT5 term of orthotopic tumor burden model)	Hill coefficient of pSTAT5 inhibition (HAMG) [4]	measured value of pSTAT5 (mean+/−sd) ([5]; 50 mg/Kg QD multiple-day dosing, at 240 hr, baseline pSTAT5(0) 18,000)	inhibition of phosphorylation of STAT5 at the time of maximum effect ([5]; single dose 150mg/kg oral)	ka (Fixed) [6]	ka (Fixed) ([6]; listed as Sorafenib)	inhibition of phosphorylation of STAT5 at the time of maximum effect ([5]; single dose 10mg/kg oral)
0.0107	5.31e-05 s⁻¹	0.0964 (10) L	–	–	–	–	–	CC(C)(C)c1cc(NC(=O)Nc2ccc(-c3cn4c(n3)sc3cc(OCCN5CCOCC5)ccc34)cc2)no1 [AC220, quizartinib]	–	–	–	–	–	–	–	–	–
–	–	0.109 (7.4) L	0.0945 µM	4.16 (3.1) nmol/h	1.00 (20) h^−1	4 fold	–	C[C@H]1CC[C@H](n2c3cnccc3c3cnc(Nc4ccc5c(n4)CCN(C(=O)CO)C5)nc32)CC1 [AMG925]	72870+/−1247	14.9	15.1	1.92 (4.9)	17020+/−1133	almost completely inhibit	–	–	–
–	–	0.0247 (4.4) L	0.00985 µM	0.0736 (12) nmol/h	–	–	17 fold	CNC(=O)c1cc(Oc2ccc(NC(=O)Nc3ccc(Cl)c(C(F)(F)F)c3)cc2)ccn1 [sorafenib]	–	–	–	–	–	–	3 h⁻¹	3 (Fixed) h^−1	almost completely inhibit
